Counter-ions that a name gives are not always drawn.
Key:
Assay type in all cases: biochemical
human or animal plasma [1] = test: prothrombin time (PT) coagulation assay in plasma; details: concentration required to double the clotting time, linear extrapolation; Thromboplastin-C reagent
Procedure: (§1) Dog plasma and rat plasma are obtained from conscious mixed-breed hounds (either sex, hazelton-LRE, Kalamazoo, Michigan, U.S.A.) or from anesthetized male Sprague-Dawley rats (Harlan Sprague-Dawley, Inc., Indianapolis, Indiana, U.S.A.) by venipuncture into 3.8 percent citrate. Fibrinogen is prepared from in-date ACD human blood as the fraction I-2 according to previous procedures and specifications. Smith, Biochem. J., 185, 1-11 (1980); and Smith, et al., Biochemistry, 11, 2958-2967 (1972). Human fibrinogen is also purchased as 98 percent pure/plasmin free from American Diagnostica, Greenwich, Connecticut. Coagulation reagents ACTIN, Thromboplastin, and Human plasma are from Baxter Healthcare Corp., Dade Division, Miami, Florida. […]
(§2) Coagulation assay procedures are as previously described. […] The thrombin time (TT) is measured by adding 0.05 ml saline and 0.05 ml thrombin (10 NIH units/ml) to 0.05 ml test plasma. The activated partial thromboplastin time (APTT) is measured by incubation of 0.05 ml test plasma with 0.05 ml Actin reagent for 120 seconds followed by 0.05 ml CaCl2 (0.02 M). The prothrombin time (PT) is measured by adding 0.05 ml saline and 0.05 ml Thromboplastin-C reagent to 0.05 ml test plasma. […] Each of the particularly preferred examples of the invention listed above was determined to have a TT value of less than 100 ng/mL. […]

human or animal plasma [2] = test: thrombin time (TT) coagulation assay in plasma; details: concentration required to double the clotting time, linear extrapolation; thrombin 10 NIH units/ml
Procedure: as §1, §2

human thrombin = biological target: T1, human thrombin (Homo sapiens, UniProt P00734); test: inhibition of the amidase activity of thrombin (chromogenic substrate), Kass; details: hypothetical equilibrium (association) constant thrombin + test compound; mean over a range of concentrations; pH 7.4
T1 construct: purified human thrombin; purchased Enzyme Research Laboratories, South Bend, Indiana
Procedure: The assay is carried out by mixing 50 µl buffer (0.03M Tris, 0.15M NaCl, pH 7.4) with 25 µl of human thrombin solution (purified human thrombin, Enzyme Research Laboratories, South Bend, Indiana, at 8 NIH units/ml) and 25 µl of test compound in a solvent (50% aqueous methanol (v:v)). Then 150 µl of an aqueous solution of the chromogenic substate (at 0.25 mg/ml) are added and the rates of hydrolysis of the substrate are measured by monitoring the reactions at 405 nm for the release of p-nitroaniline. Standard curves are constructed by plotting free thrombin concentration against hydrolysis rate. The hydrolysis rates observed with test compounds are then converted to "free thrombin" values in the respective assays by use of the standard curves. The bound thrombin (bound to test compound) is calculated by subtracting the amount of free thrombin observed in each assay from the known initial amount of thrombin used in the assay. The amount of free inhibitor in each assay is calculated by subtracting the number of moles of bound thrombin from the number of moles of added inhibitor (test compound). […]
Kass is calculated for a range of concentrations of test compounds and the mean value reported in units of liter per mole. […] For example, each of the particularly preferred examples of the invention listed above was determined to have a Kass of at least 5 X 10^6 L/mole.

human or animal plasma [3] = test: activated partial thromboplastin time (APTT) coagulation assay in plasma; details: concentration required to double the clotting time, linear extrapolation; Actin reagent, CaCl2
Procedure: as §1, §2

SMILES	PT (human or animal plasma [1])	TT (human or animal plasma [2])	Kd (human thrombin)	APTT (human or animal plasma [3])
O=C(O)CN[C@H](CC1CCCCC1)C(=O)N1CCC[C@H]1C(=O)NC/C=C/c1c[nH]cn1 [Example 7, N-(carboxymethyl)-D-cyclohexylalanyl-N-[(E)-3-(imidazol-4-yl)prop-2-enyl]-L-prolinamide hydrochloride]	430 ng/mL	30 ng/mL	17.5 nM	280 ng/mL
O=C(O)CN[C@H](CC1CCCCC1)C(=O)N1CCC[C@H]1C(=O)NCCCc1c[nH]cn1 [Example 8, N-(carboxymethyl)-D-cyclohexylalanyl-N-[3-(imidazol-4-yl)propyl]-L-prolinamide hydrochloride]	380 ng/mL	20 ng/mL	12.5 nM	170 ng/mL
